Test results reported in patent US20200282010A1, “IMMUNOGENIC COMPOSITIONS AND USES THEREFOR” (Epiaxis Therapeutics Pty Ltd, priority 2017, published 2020).

Test system: CD8^+ T-cells of melanoma patient liquid biopsies
Experiment: Immunofluorescence of EOMES, TBET and PD-1 (exhaustion signature) in patient CD8+ T-cells
Assay type: cell-based, human
Details: CR, SD and PD cohorts, vehicle or PMA/CI, FIG. 4
Source text: FIG. 4 is graphical representation showing expression of EOMES, TBET and PD-1 in CD8^+ T-cells of melanoma patient liquid biopsies in the presence and absence of PKCθi peptide inhibitor. A) CD8^+ T-cells were isolated from melanoma patient liquid biopsies (CR=complete response, SD=Stable Disease, PD=progression of disease) and were stimulated with PMA/CI and pre-clinically screened with either vehicle control or PKCθi peptide inhibitor. Samples were then fixed and immunofluorescence microscopy was performed on these cells with primary antibodies for EOMES, TBET, and PD-1. Representative images for each dataset are shown. Graph represents the TCFI for PD1, TNFI for EOMES and TNFI for TBET measured using ImageJ to select the nucleus minus background (n=>20 cells/sample). Graphs depicting the % inhibition or induction based on protein expression where also plotted for each protein target relative to untreated sample.
Metastatic Melanoma Biopsies were pre-enriched using the RosetteSep™ method to isolate CTCs by employing the RosetteSep™ Human CD8 enrichment Kit (15063, StemCell Technologies) to isolate CD8+ cells and red blood cells, using density gradient centrifugation with SepMate™-50 (IVD) density gradient tubes (85450, StemCell Technologies) and Lymphoprep™ density gradient medium (07861, StemCell Technologies). […] Digital images were analysed using ImageJ software (ImageJ, NIH, Bethesda, Md., USA) to determine the either the Total Nuclear Fluorescent Intensity (TNFI), the Total Cytoplasmic Fluorescent Intensity (TCFI) or total Fluorescent Intensity (TFI). The plot-profile feature of ImageJ was used to plot the fluorescence signal intensity along a single line spanning the nucleus (n=5 lines per a nucleus, 5 individual cells) using the average fluorescent signal intensity for the indicated pair of antibodies was plotted for each point on the line with SE. […] For each plot-profile the PCC was determined. […]

RKEIDPPFRPKVK [PKCθi]
TBET expression: enhancing
expression of EOMES (inhibitor 8 mm): inhibiting expression
expression of PD-1 (inhibitor 8 mm): inhibiting expression
